Reference: patent publication US5232922A, “Imidazole compounds, processes for their preparation, pharmaceuticals based on these compounds and some intermediates” (priority 1990, dated 1993)
Structures can show the parent of a compound that is named as a salt. Where two headings read alike, the source gives them in different places.

Test system: skeletal muscle of the rat (chronic ischemic)
Experiment: Effect on the contractility of the skeletal muscle after chronic ischemia (tiring index)
Format: in vivo, rat (male Wistar)
Details: for TI of ischemic treated muscle: tiring index = maximum contractility / residual force after 5 min stimulation; for change in vivo at 6 mg/kg: Rattus norvegicus, po, 168 h, read-out: Percentage change (TI of ischemic treated muscle vs TI of normal non-treated muscle)
From the text: 1) Effect on the Contractility of the Skeletal Muscle After Chronic Ischemia
In recent years, a marked change has taken place in ideas about the pathophysiology of chronic peripheral arterial occlusive disease as scientific interest has to an increasing extent shifted from the macrocirculation to the microcirculation. Disturbances in the microcirculation therefore manifest themselves in an undersupply of substrates with tissue ischemia resulting therefrom which, in turn, leads to an impairment in the function of the extremity concerned. The logical consequence of this is that the target organ skeletal muscle comes more and more into the forefront. […] The clinical activity is in fact also consistently determined in humans with the aid of the painless walking distance on the moving walkway.
Male Wistar rats having a body weight of 380 to 410 g were used as experimental animals. Under hexobarbital anesthesia (®Evipan--sodium, 200 mg/kg BW (=body weight) i.p.), a unilateral ligature of the right femoral artery was applied to the animals in the groin. After sprinkling penicillin sulfonamide powder for antibiotic wound care, the small operation wound was closed and the animals were continuously observed until they were completely awake. One week later, the administration of substance began by oral administration using a stomach tube (6 mg/kg BW, carboxymethylcellulose-sodium suspension) and was continued for 7 days (single administration per day, about 7h30 to 8h30). The contractility was measured 24 h after the last administration of substance in order to exclude acute effects, to be precise by the following experimental protocol:
Superfusion with physiological saline solution (37° C.) was used to avoid drying out and cooling. The mean arterial blood pressure was recorded continuously via Statham (=blood pressure measuring device) by means of a cannulated caroted artery to control the physiological status of the animals during the experiment. All animals breathed spontaneously by means of an inserted tracheal tube.
After these preparations, the muscle was made to contract (Stimulator I, Hugo Sachs, Federal Republic of Germany) by direct electrical stimulation (2.5 mA, 2 Hz). The absolute contractility in grams at various times of stimulation was used as the measured parameter. […] If the maximum contractility at the start of stimulation is now divided by the residual force remaining after 5 minutes' tiring stimulation, a "tiring index TI" for the muscle concerned can be calculated; the ability to tire here is larger the larger TI is numerically.
4 to 6 individual experiments were carried out for each test preparation.

[1] = 6 mg/kg p.o. over 7 days, n = 4-6
[2] = 6 mg/kg p.o. over 7 days, n = 4-6, smaller value = more effective

SMILES	TI of ischemic treated muscle [1]	change in vivo at 6 mg/kg [2] [%]	change in vivo at 6 mg/kg [%]
Cn1cnc(S(=O)(=O)NCCN2CCOCC2)c1 [Example 9, N-(2-morpholinoethyl)-1-methyl-4-imidazolesulfonamide]	2.47	10.3	–
Cl.Cn1cnc(S(=O)(=O)NCCCCCN2CCOCC2)c1 [Example 11, N-(5-morpholinopentyl)-1-methyl-4-imidazolesulfonamide hydrochloride]	2.52	22.9	–
CCCCN(CCCN1CCOCC1)S(=O)(=O)c1cn(C)cn1.Cl [Example 15, N-butyl-N-(3-morpholino-1-propyl)-1-methyl-4-imidazolesulfonamide hydrochloride]	1.96	10.9	–
CC1CCCCN1CCCNS(=O)(=O)c1cn(C)cn1.Cl (centres unmarked) [Example 17, N-[3-(2-methylpiperidino)-propyl]-1-methyl-4-imidazolesulfonamide hydrochloride]	2.04	-14.3	–
Cn1cnc(S(=O)(=O)NCCCCN2CCC3(CC2)OCCO3)c1 [Example 19, hydrochloride]	2.20	–	11.1
Cl.Cn1cnc(S(=O)(=O)NCCN2CCCC2)c1 [Example 20, N-(2-pyrrolidinoethyl)-1-methyl-4-imidazolesulfonamide hydrochloride]	2.56	23.1	–
COCCN(CCCNS(=O)(=O)c1cn(C)cn1)CCOC [Example 23]	2.18	23.1	–
CN(CCCNS(=O)(=O)c1cn(C)cn1)Cc1ccccc1 [Example 28, N-[3-(N-Benzyl-N-methylamino)-1-propyl]-1-methyl-4-imidazolesulfonamide hydrogenfumarate]	2.27	14.6	–
CCn1cnc(S(=O)(=O)NCCCN2CCOCC2)c1 [Example 37, N-(3-Morpholinopropyl)-1-ethyl-4-imidazolesulfonamide hydrogenfumarate]	2.09	-7.9	–
Cn1cnc(S(=O)(=O)Oc2ccc(N3CCN(S(=O)(=O)c4ncn(C)c4Cl)CC3)cc2)c1Cl [Example 41, 1-(1-Methyl-5-chloro-4-imidazolesulfonyl)4-[4-(1-methyl-5-chloro-4-imidazolesulfonyloxy)phenyl]piperazine]	2.18	18.5	–
Cn1cnc(S(=O)(=O)N2CCSCC2)c1 [Example 42, 4-(1-Methyl-4-imidazolesulfonyl)tetrahydro-4H-1,4-thiazine]	2.84	24.6	–
Cn1cnc(S(=O)(=O)NCCc2ccc(O)cc2)c1 [Example 45, N-(4-hydroxyphenethyl)-1-methyl-4-imidazolesulfonamide]	2.14	16.3	–
Cn1cnc(S(=O)(=O)NCCCCCCNS(=O)(=O)c2ncn(C)c2Cl)c1Cl [Example 47, 1,6-bis(5-chloro-1-methyl-4-imidazolesulfonamido)hexane]	2.46	6	–
Cn1cnc(S(=O)(=O)NCCc2ccc(OCC(=O)O)cc2)c1 [Example 51, 4-[2-(1-Methyl-4-imidazolesulfonyl)aminoethyl]phenoxyacetic acid]	2.92	23.7	–
Cn1cnc(S(=O)(=O)NCCc2ccc(OCC(=O)O)cc2)c1Cl [Example 52, 4-[2-(5-Chloro-1-methyl-4-imidazolesulfonyl)aminoethyl]phenoxyacetic acid]	2.16	17.4	–
CCOC(=O)COc1ccc(N2CCN(S(=O)(=O)c3ncn(C)c3Cl)CC2)cc1 [Example 58, Ethyl 4-[4-(5-chloro-1-methyl-4-imidazolesulfonyl)piperazinyl]phenoxyacetate]	2.07	-1.9	–
